Test results from patent US20250339489A1, “COMPOSITION FOR SUPPRESSING HAIR LOSS OR PROMOTING HAIR GROWTH CONTAINING PEPTIDE” (AMOREPACIFIC CORPORATION, priority 2024, published 2025).

Test system: Human dermal papilla cells (HDPCs)
Experiment: Activation of hair dermal papilla cell proliferation (CCK8 assay, absorbance at 450 nm)
Type: cell-based
Conditions: serum-free DMEM, peptide at 0.1 μM, 1 μM and 10 μM, 72 hours
Method: Human dermal papilla cells (HDPCs) were attached to a 96-well plate at 2,000 cells per well, and then cultured using DMEM medium (Sigma Aldrich) containing 10% FBS and 1% penicillin/streptomycin (P/S; Sigma Aldrich) for 24 hours, the medium was then exchanged with serum-free DMEM, and diluted samples were treated with a GPK, GPS, GPA, GQK, or PO peptide at a concentration of each of 0.1 μM, 1 μM, and 10 μM, for 72 hours, and then treated with a CCK8 reagent for 1 hour to measure the absorbance at 450 nm using a microplate reader (TECAN), and the results are shown in FIGS. 1 to 5 (FIG. 1: GPK, FIG. 2: GPS, FIG. 3: GPA, FIG. 4: GQK, and FIG. 5: PO). As a positive control (PC), a 5% fetal bovine serum (FBS) treated group was used.

Row | Substance | cell proliferation compared to the untreated control
1 | Gly-Gln-Lys [GQK] | significantly increased
2 | Gly-Pro-Ala [GPA] | significantly increased
3 | Gly-Pro-Lys [GPK] | significantly increased
4 | Gly-Pro-Ser [GPS] | significantly increased
5 | Pro-Hyp [PO] | significantly increased
